# Laboratory results from patent US10172905B1, “Treatment of protein degradation disorders” (President and Fellows of Harvard College, priority 2005, dated 2019).
# System: tubulin acetylation versus lysine acetylation
# Assay: Immunofluorescence assay for acetylated tubulin versus acetylated lysine
# Format: cell-based
# Excerpt: The present invention provides an immunofluorescence-based assay for identifying test agents with HDAC and/or TDAC inhibitory activity. The inventive assay is based on the use of specific antibodies for acetylated tubulin and acetylated lysine (i.e., a marker for acetylated histones). […] As described above, any type of agent, including small molecules, polymers, biomolecules, proteins, peptides, polynucleotides, etc., may be screened using the inventive assay. In certain embodiments, small molecules are screened. In certain particular embodiments, the small molecules are tubacin-like or are tubacin derivatives. In certain embodiments, the small molecules are compounds of the present invention. The test agents may also be small molecules purchased, prepared through traditional synthetic techniques, prepared through combinatorial chemistry techniques, or obtained from historical chemical collections. In certain embodiments, the test agents are biomolecules. In other embodiments, the test agents are proteins or peptides. In yet other embodiments, the test agents are polynucleotides. In certain embodiments, the test agents are polymers.
# The assay involves contacting cells with a specific concentration of the test agent under specific conditions. […] There particular parameters may be determined by the operator or scientist conducting the assay as would be appreciated by one of skill in this art. After a determined time of incubation with the test compound, the cells are treated with a first primary antibody directed against acetylated tubulin and a second primary antibody directed against acetylated lysine. […] The signal from each of the secondary antibodies is measured and optionally quantitated to determine the amount of TDAC and HDAC inhibition under the specified conditions with the test agent. Optionally, the extent of inhibition is determined relative to a control in which no test agent was added. In certain embodiments, the secondary antibody is left out and the primary antibodies are uniquely labeled for identification and optionally quantification. […]
smiles,measurement,setting,value
O=C(CCCCCCC(=O)Nc1ccc([C@H]2O[C@@H](CSc3nc(-c4ccccc4)c(-c4ccccc4)o3)C[C@@H](c3ccc(CO)cc3)O2)cc1)NO [tubacin],specificity for tubulin acetylation versus lysine acetylation,A549 cells,specificity
same,specificity for tubulin acetylation versus lysine acetylation,cells not given,specificity
